This passage reports Tm shift results from PubChem BioAssay AID513 (SGCOxCompounds, 2006).

The target in this test is Casein kinase I isoform gamma-1 (Homo sapiens) (UniProt Q9HCP0). The test can be described thus: CSNK1G1 binders by thermal stabilization, biophysical, DSF, SYPRO orange, recombinant protein (AID 513). Conditions: at 10 µM, protein 2 µM, active compounds read high.
Casein kinase I isoform gamma-1 (Homo sapiens), sequence (Q9HCP0 whole entry, looked up, canonical isoform): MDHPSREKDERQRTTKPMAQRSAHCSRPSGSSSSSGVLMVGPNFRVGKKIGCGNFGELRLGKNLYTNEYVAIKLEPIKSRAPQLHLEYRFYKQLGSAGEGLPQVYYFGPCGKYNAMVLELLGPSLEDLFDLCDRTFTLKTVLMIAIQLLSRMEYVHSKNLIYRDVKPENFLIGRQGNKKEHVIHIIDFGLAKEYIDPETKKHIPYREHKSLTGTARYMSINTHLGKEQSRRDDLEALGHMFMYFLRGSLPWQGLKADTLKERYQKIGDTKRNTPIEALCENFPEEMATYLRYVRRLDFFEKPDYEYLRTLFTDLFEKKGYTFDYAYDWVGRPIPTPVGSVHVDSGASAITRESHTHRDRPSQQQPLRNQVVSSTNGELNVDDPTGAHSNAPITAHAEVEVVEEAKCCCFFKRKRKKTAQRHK
For `Nc1nc(Nc2ccccc2F)sc1C(=O)c1ccc(Br)cc1`, the Tm shift is 3.9 Celsius. Then `NC(=O)c1ccc(-c2nc(-c3ccc4c(c3)OCCO4)c(-c3ccccn3)[nH]2)cc1`, with 6.1 Celsius; and `NC1=N/C(=C2/CCNC(=O)c3[nH]c(Br)cc32)C(=O)N1`, with 5.7 Celsius; and `Cc1cc(Nc2nc(-c3ccccc3)nc3ccccc23)n[nH]1`, with 3.3 Celsius.

In the case of `O=Nc1c(-c2c(O)[nH]c3cc(Br)ccc23)[nH]c2ccccc12`, the Tm shift is 3.5 Celsius. For the molecule `O=Nc1c(-c2c(O)[nH]c3ccc(S(O)(O)O)cc23)[nH]c2ccccc12`, the Tm shift is 4 Celsius. Then `NC1=N/C(=C2\CCNC(=O)c3[nH]ccc32)C(=O)N1`, with 3.6 Celsius. As for `COc1ccc(Nc2nc(N)c(C(=O)c3ccc(OC)cc3)s2)cc1`, the figure is 5.6 Celsius; as for `Nc1nc(Nc2cccc(Cl)c2)sc1C(=O)c1ccc(F)cc1`, 5.3 Celsius. Then `O=c1c(O)c(-c2ccc(O)c(O)c2)oc2cc(O)cc(O)c12`, with 3.2 Celsius. As to `COc1ccc(Nc2nc(N)c(C(=O)c3ccc(Cl)cc3)s2)cc1`, the Tm shift is 4.1 Celsius. Take `COc1cc(/C=C/C(=O)CC(=O)/C=C/c2ccc(O)c(OC)c2)ccc1O`: the Tm shift is 4.5 Celsius. Then `CC(C)n1cnc2c(Nc3cccc(Cl)c3)nc(NCCO)nc21`, with 6.1 Celsius; and `CCN(CC)CCNC(=O)c1c(C)[nH]c(/C=C2\C(=O)Nc3ccc(Cl)cc32)c1C`, with 4.3 Celsius. Then `O=c1[nH]c(O)c2c1c1c3ccccc3nc1n1cncc21`, with 4.3 Celsius; and `N#C/C(=C1\Nc2ccccc2S1)c1ccnc(NCCc2cccnc2)n1`, with 3.7 Celsius. As for `Clc1ccc(Nc2ncc(-c3cn[nH]c3)n3ccnc23)cc1`, the figure is 3.6 Celsius; as for `CSc1nc(-c2ccnc(NC(C)c3ccccc3)c2)c(-c2ccc(F)cc2)[nH]1` (configuration not stated), 3.6 Celsius. In the case of `CCn1cnc2c(Nc3cccc(Cl)c3)nc(N[C@@H]3CCCC[C@@H]3N)nc21`, the Tm shift was 5.8 Celsius. Then `Oc1ccc(Nc2nccn3c(-c4cn[nH]c4)cnc23)cc1`, with 3.2 Celsius; and `Nc1nc(Nc2ccccc2)sc1C(=O)c1ccc(F)cc1`, with 3.9 Celsius. As for `Nc1nc(Nc2ccc(F)cc2)sc1C(=O)c1ccccc1`, the figure is 4.1 Celsius.
